The text below walks through data of ChEMBL document CHEMBL3045239, “Synthesis and antimicrobial evaluation of novel benzo[b]thiophenes comprising -lactam nucleus” (2012).

Structures are written as SMILES.

Common to all, as to type: functional
The test system of one test is Micrococcus luteus. Nature of the test: Antimicrobial activity against Micrococcus luteus at 1 mg/ml after 24 hr by agar well diffusion method. The note with it: read-out: DIZ.
Another test has as its system Pseudomonas aeruginosa. Nature of the test: Antimicrobial activity against Pseudomonas aeruginosa at 1 mg/ml after 24 hr by agar well diffusion method. The note with it: read-out: DIZ. A general note: A growth-free zone around the sample is the usual read-out of agar diffusion tests.
The next test relates to Candida albicans. Nature of the test: Antimicrobial activity against Candida albicans at 200 ug/ml after 7 days by agar plate method. The note with it: 168 h.
For another test, the system named is Staphylococcus aureus. As to the kind of experiment: Antimicrobial activity against Staphylococcus aureus at 1 mg/ml after 24 hr by agar well diffusion method. The note with it: read-out: DIZ.
The subject of a further test is Bacillus subtilis. Nature of the test: Antimicrobial activity against Bacillus subtilis at 1 mg/ml after 24 hr by agar well diffusion method. Conditions: read-out: DIZ.
The test system of another test is Escherichia coli. As to the kind of experiment: Antimicrobial activity against Escherichia coli at 1 mg/ml after 24 hr by agar well diffusion method. The note with it: read-out: DIZ.
For another test, the system named is Trichophyton longifusum. As to the kind of experiment: Antimicrobial activity against Trichophyton longifusum at 200 ug/ml after 7 days by agar plate method. The note with it: 168 h.
For another test, the system named is Fusarium solani. Nature of the test: Antimicrobial activity against Fusarium solani at 200 ug/ml after 7 days by agar plate method. The note with it: 168 h.
The test system of a further test is Microsporum canis. Nature of the test: Antimicrobial activity against Arthroderma otae at 200 ug/ml after 7 days by agar plate method. The note with it: 168 h.

In general, inhibition refers to the change of the read-out against control, counted positive when it falls. As for `COc1cc([C@@H]2[C@H](Oc3ccc(Cl)cc3Cl)C(=O)N2c2sc3c(c2C#N)C=C(/C=C/c2c(C)nn(-c4ccccc4)c2Cl)CC3(C)C)cc(OC)c1OC`, the zone of inhibition at 1000 µg/mL in the test with Micrococcus luteus was less than 10 mm; in the test on Pseudomonas aeruginosa it was 11.7 mm; in the test with Staphylococcus aureus, 10.6 mm; in the test on Bacillus subtilis, 11.6 mm; in the test with Escherichia coli, 12.9 mm. In addition, the inhibition at 200 µg/mL in the test on Candida albicans came to 50%.
As for `Cc1nn(-c2ccccc2)c(Cl)c1/C=C/C1=Cc2c(sc(N3C(=O)[C@@H](Oc4ccc(Cl)cc4Cl)[C@H]3c3ccc(Cl)cc3)c2C#N)C(C)(C)C1` (relative stereo), the zone of inhibition at 1000 µg/mL in the test with Micrococcus luteus was less than 10 mm; in the test with Pseudomonas aeruginosa, 11.2 mm; with Staphylococcus aureus it was 10.6 mm; in the test with Bacillus subtilis, 12.4 mm; in the test on Escherichia coli, 13.9 mm. In the test with Trichophyton longifusum, this molecule came in with an inhibition at 200 µg/mL of 35%.
As to `Cc1nn(-c2ccccc2)c(Cl)c1/C=C/C1=Cc2c(sc(N3C(=O)[C@@H](Oc4ccc(Cl)cc4Cl)[C@H]3c3ccc(Cl)c(Cl)c3)c2C#N)C(C)(C)C1` (relative stereo), the zone of inhibition at 1000 µg/mL in the test on Micrococcus luteus was less than 10 mm; with Pseudomonas aeruginosa it was 10.8 mm; in the test with Staphylococcus aureus it was less than 10 mm; in the test with Bacillus subtilis, 11.2 mm; in the test with Escherichia coli it was 12 mm.
For `Cc1nn(-c2ccccc2)c(Cl)c1/C=C/C1=Cc2c(sc(N3C(=O)[C@@H](Oc4ccc(Cl)cc4Cl)[C@H]3c3ccc(N(C)C)cc3)c2C#N)C(C)(C)C1` (relative stereo), the zone of inhibition at 1000 µg/mL is less than 10 mm in the test with Micrococcus luteus; less than 10 mm with Pseudomonas aeruginosa; less than 10 mm in the test with Staphylococcus aureus; less than 10 mm with Bacillus subtilis; 14.6 mm in the test on Escherichia coli.
Turning to `Cc1nn(-c2ccccc2)c(Cl)c1/C=C/C1=Cc2c(sc(N3C(=O)[C@@H](Oc4ccc(Cl)cc4Cl)[C@H]3c3ccccc3O)c2C#N)C(C)(C)C1` (relative stereo), the zone of inhibition at 1000 µg/mL with Micrococcus luteus is less than 10 mm; in the test on Pseudomonas aeruginosa, 11.6 mm; with Staphylococcus aureus, 12.3 mm; in the test with Bacillus subtilis, 18.9 mm; with Escherichia coli it was 17.6 mm. Moreover, the inhibition at 200 µg/mL in the test with Trichophyton longifusum came out at 89%; with Candida albicans, 91%.
For `COc1ccc([C@@H]2[C@H](Oc3ccc(Cl)cc3Cl)C(=O)N2c2sc3c(c2C#N)C=C(/C=C/c2c(C)nn(-c4ccccc4)c2Cl)CC3(C)C)cc1` (relative stereo), the zone of inhibition at 1000 µg/mL in the test with Micrococcus luteus is less than 10 mm; in the test with Pseudomonas aeruginosa it was 11.9 mm; with Staphylococcus aureus, 11.3 mm; in the test with Bacillus subtilis it was 12.5 mm; in the test on Escherichia coli, 15.6 mm. In addition, the inhibition at 200 µg/mL is 30% in the test on Candida albicans and 25% in the test with Fusarium solani.
With `COc1ccc([C@@H]2[C@H](Oc3ccc(Cl)cc3Cl)C(=O)N2c2sc3c(c2C#N)C=C(/C=C/c2c(C)nn(-c4ccccc4)c2Cl)CC3(C)C)cc1O` (relative stereo), the zone of inhibition at 1000 µg/mL is less than 10 mm in the test on Micrococcus luteus; less than 10 mm with Pseudomonas aeruginosa; less than 10 mm in the test on Staphylococcus aureus; less than 10 mm in the test on Bacillus subtilis; 13.7 mm in the test with Escherichia coli.
On to `Cc1nn(-c2ccccc2)c(Cl)c1/C=C/C1=Cc2c(sc(N3C(=O)[C@@H](Oc4ccc(Cl)cc4Cl)[C@H]3c3ccc([N+](=O)[O-])cc3)c2C#N)C(C)(C)C1` (relative stereo), for which the zone of inhibition at 1000 µg/mL in the test on Micrococcus luteus is less than 10 mm; in the test with Pseudomonas aeruginosa, 12.1 mm; with Staphylococcus aureus, less than 10 mm; in the test on Bacillus subtilis it was 11.2 mm; with Escherichia coli it was 14 mm.
On to `Cc1nn(-c2ccccc2)c(Cl)c1/C=C/C1=Cc2c(sc(N3C(=O)[C@@H](Oc4ccc(Cl)cc4Cl)[C@H]3c3ccccc3)c2C#N)C(C)(C)C1` (relative stereo), for which the zone of inhibition at 1000 µg/mL with Micrococcus luteus is less than 10 mm; in the test with Pseudomonas aeruginosa, 11.7 mm; with Staphylococcus aureus, less than 10 mm; in the test on Bacillus subtilis, 11.7 mm; in the test with Escherichia coli, 14.2 mm. For the same molecule, the results for the inhibition at 200 µg/mL in the test on Microsporum canis and in the test with Trichophyton longifusum were 50% and 40%, respectively.
As for `Cc1nn(-c2ccccc2)c(Cl)c1/C=C/C1=Cc2c(sc(N3C(=O)[C@@H](Oc4ccc(Cl)cc4Cl)[C@H]3c3ccccc3Cl)c2C#N)C(C)(C)C1` (relative stereo), the zone of inhibition at 1000 µg/mL came to 13.1 mm with Micrococcus luteus; 10.6 mm in the test with Pseudomonas aeruginosa; 11.3 mm in the test on Staphylococcus aureus; 18.7 mm in the test with Bacillus subtilis; 17.8 mm with Escherichia coli. The inhibition at 200 µg/mL with Trichophyton longifusum came out at 92%; in the test with Candida albicans it was 94%; in the test on Fusarium solani, 40%.
Regarding `C=CC1=C(C(=O)O)N2C(=O)[C@@H](NC(=O)/C(=N\OCC(=O)O)c3csc(N)n3)[C@H]2SC1` [CEFIXIME], the zone of inhibition at 1000 µg/mL in the test with Micrococcus luteus was determined as 34.1 mm; in the test with Pseudomonas aeruginosa, 17.8 mm; in the test on Staphylococcus aureus it was 36.1 mm; in the test with Bacillus subtilis it was 28.7 mm; in the test on Escherichia coli, 30 mm.
For `O=C(N[C@H](CO)[C@H](O)c1ccc([N+](=O)[O-])cc1)C(Cl)Cl` [CHLORAMPHENICOL] the same measures were 17.2 mm, 19.6 mm, 16.4 mm, 18.8 mm and 17 mm.
With `Clc1ccc(COC(Cn2ccnc2)c2ccc(Cl)cc2Cl)c(Cl)c1` (stereo not given) [MICONAZOLE], the inhibition at 200 µg/mL was 90% in the test with Microsporum canis, 100% in the test with Trichophyton longifusum, 90% in the test on Candida albicans and 90% in the test with Fusarium solani.
